# Test results taken from patent US20200278355A1, “CONJUGATED PROTEINS AND USES THEREOF” (THE SCRIPPS RESEARCH INSTITUTE, priority 2017, published 2020).
# Tests used:
# Format in all cases: cell-based
# NUDT8 = biological target: T1, NUDT8 (Homo sapiens, UniProt Q8WV74); assay: isoTOP-ABPP of compound-treated H460 cells: NUDT8; settings: NUDT8 C207; 40 μM
# T1 construct: H460 cells or H460 cells expressing luciferase in a 10 cm plate were incubated with indicated compounds; endogenous in cells; host or cells: H460
# Experimental: (§1) For analysis of NR0B1 ligands or control compound reactivity, H460 cells or H460 cells expressing luciferase in a 10 cm plate were incubated with indicated compounds in serum/dye-free RPMI for 3 hours at 37° C. Cells were washed once ice-cold PBS and lysed in 1% Triton X-100 dissolved in PBS with protease inhibitors (Sigma) by sonication. Samples were clarified by centrifugation for 10 min at 16,000×g. Lysate was adjusted to 1.5 mg ml^−1 in 500 μL.
# (§2) Samples were labeled for 1 h at ambient temperature with 100 μM iodoacetamide alkyne (1, IA-alkyne, 5 μL of 10 mM stock in DMSO). Samples were conjugated by copper-catalyzed azide-alkyne cycloaddition (CuAAC) to isotopically labeled, TEV-cleavable tags (TEV-tags). Heavy CuAAC reaction mixtures was added to the DMSO-treated or shGFP control samples and light CuAAC reaction mixture was added to compound-treated or shNRF2 samples. The CuAAC reaction mixture consisted of TEV tags (light or heavy, 10 μL of 5 mM stocks in DMSO, final concentration=100 μM), 1 mM tris(2-carboxyethyl)phosphine hydrochloride (TCEP; fresh 50× stock in water, final concentration=1 mM), ligand (17× stock in DMSO:t-butanol 1:4, final concentration=100 μM) and 1 mM CuSO4 (50× stock in water, final concentration=1 mM). The samples were allowed to react for 1 h at which point the samples were centrifuged (16,000×g, 5 min, 4° C.). […]
# FLAG-NR0B1 (WT) = biological target: T2, FLAG-NR0B1 (WT) (Homo sapiens, UniProt P51843); assay: Gel-based BPK-29yne labeling of NR0B1 and competition in HEK293T cells; settings: 3 h pre-treatment, then BPK-29yne 30 min
# T2 construct: expressed in transfected cells; host or cells: HEK-293T, transient, pRK5-based vector
# Experimental: 4×10^6 HEK-293T cells were seeded in poly-L-lysine coated 10 cm plates and transfected the next day with 5 μg of FLAG-NR0B1, FLAG-NR0B1-C274V, or FLAG-METAP2 cDNA in a pRK5-based expression vector. 48 h after transfection, cells were treated with indicated concentrations of BPK-29 or control compound BPK-27 for 3 h at 37° C. in DMEM containing 10% FBS and supplements as described in Cell Culture. BPK-29yne (5 μM) was then added and incubated for an additional 30 min at 37° C. FLAG immunoprecipitates were prepared as described above and following washes, the FLAG resin was resuspended in PBS (100 μL). To each sample, 12 μL of a freshly prepared “click” reagent mixture was added to conjugate the fluorophore to probe-labeled proteins. […] Samples were boiled for 5 min and proteins were resolved by SDS-PAGE (10% acrylamide), and visualized by in-gel fluorescence on a Bio-Rad ChemiDoc MP flatbed fluorescence scanner. Samples were also analyzed by immunoblotting. Recombinantly expressed FLAG-tagged protein levels were determined with the FLAG antibody (Sigma). Gel fluorescence and imaging was processed using Image Lab (v 5.2.1) software.
# TXNDC12 = biological target: T3, TXNDC12 (Homo sapiens, UniProt O95881); assay: isoTOP-ABPP of compound-treated H460 cells: TXNDC12; settings: TXNDC12 C66; 40 μM
# T3 construct: endogenous in cells; host or cells: H460
# Experimental: as §1, §2
# T3 sequence (O95881 27-172): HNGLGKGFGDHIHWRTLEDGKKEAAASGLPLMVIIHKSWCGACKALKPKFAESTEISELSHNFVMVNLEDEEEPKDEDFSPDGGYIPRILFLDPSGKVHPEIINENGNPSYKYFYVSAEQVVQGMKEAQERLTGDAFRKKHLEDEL
# T2 sequence (P51843 whole entry): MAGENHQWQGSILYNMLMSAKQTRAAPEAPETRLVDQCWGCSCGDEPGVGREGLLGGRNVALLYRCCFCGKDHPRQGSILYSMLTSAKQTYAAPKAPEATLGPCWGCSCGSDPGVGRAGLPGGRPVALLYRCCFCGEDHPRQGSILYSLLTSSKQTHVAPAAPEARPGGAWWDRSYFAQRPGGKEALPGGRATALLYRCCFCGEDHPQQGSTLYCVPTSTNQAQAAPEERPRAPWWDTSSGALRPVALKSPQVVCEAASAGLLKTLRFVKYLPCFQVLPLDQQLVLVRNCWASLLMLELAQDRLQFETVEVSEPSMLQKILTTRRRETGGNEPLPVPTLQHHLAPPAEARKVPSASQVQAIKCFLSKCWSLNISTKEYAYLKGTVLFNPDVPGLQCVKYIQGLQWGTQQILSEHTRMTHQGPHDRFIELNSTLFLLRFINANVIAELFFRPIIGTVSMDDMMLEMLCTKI
# T1 sequence (Q8WV74 whole entry): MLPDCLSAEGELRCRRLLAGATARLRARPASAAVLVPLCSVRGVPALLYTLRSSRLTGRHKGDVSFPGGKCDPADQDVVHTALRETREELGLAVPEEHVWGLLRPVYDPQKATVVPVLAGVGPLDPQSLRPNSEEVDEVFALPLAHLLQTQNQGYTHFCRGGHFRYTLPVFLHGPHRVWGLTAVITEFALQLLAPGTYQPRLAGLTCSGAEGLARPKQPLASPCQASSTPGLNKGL
structure (smiles),measurement,setting,value
"O=C(c1ccc(N2CCOCC2)cc1)N1CCCC(N(Cc2ccccc2)C(=O)CCl)CC1 (stereo not drawn) [BPK-29, N-benzyl-2-chloro-N-(1-(4-morpholinobenzoyl)azepan-4-yl)acetamide]",BPK-29-competed isoTOP-ABPP analysis,NUDT8,Yes (Competed defined as showing R value ≥ 3.0 at 40 μM of test compound)
same,blockade of BPK-29yne labeling of NR0B1 by pre-treatment,FLAG-NR0B1 (WT),blocked by pre-treatment with BPK-29 in a concentration dependent manner
same,BPK-29-competed isoTOP-ABPP analysis,TXNDC12,Yes (Competed defined as showing R value ≥ 3.0 at 40 μM of test compound)
